# Like-named read-outs stand apart in the source and are kept apart here.
# Test system: patients with advanced TP53 wild-type (WT) leukemias
compound,measurement,setting,value
"COc1ncc(-c2nc3c(n2C(C)C)[C@H](c2ccc(Cl)cc2)N(c2cc(Cl)cn(C)c2=O)C3=O)c(OC)n1 [HDM201, (S)-5-(5-Chloro-1-methyl-2-oxo-1,2-dihydro-pyridin-3-yl)-6-(4-chloro-phenyl)-2-(2,4-dimethoxy-pyrimidin-5-yl)-1-isopropyl-5,6-dihydro-1H-pyrrolo[3,4-d]imidazol-4-one]",AE: Blood Creatinine Increased,"Regimen 2A N = 7, All Grades",1 (14.3) n (%)
same,AE: Blood Phosphorus Increased,"Regimen 2A N = 7, All Grades",0 n (%)
same,AE: Blood Uric Acid Increased,"Regimen 2A N = 7, All Grades",0 n (%)
same,AE: Bone Marrow Failure,"Regimen 2A N = 7, All Grades",1 (14.3) n (%)
same,AE: C-Reactive Protein Increased,"Regimen 2A N = 7, All Grades",1 (14.3) n (%)
same,AE: Cardiac Failure,"Regimen 2A N = 7, All Grades",0 n (%)
same,AE: Cellulitis,"Regimen 2A N = 7, All Grades",0 n (%)
same,AE: Chronic Graft Versus Host Disease,"Regimen 2A N = 7, All Grades",0 n (%)
same,AE: Conjunctival Haemorrhage,"Regimen 2A N = 7, All Grades",0 n (%)
same,AE: Cough,"Regimen 2A N = 7, All Grades",0 n (%)
same,AE: Cystitis Viral,"Regimen 2A N = 7, All Grades",0 n (%)
same,AE: Cytomegalovirus Infection,"Regimen 2A N = 7, All Grades",1 (14.3) n (%)
same,AE: Decreased Appetite,"Regimen 2A N = 7, All Grades",1 (14.3) n (%)
same,AE: Diarrhoea,"Regimen 2A N = 7, All Grades",0 n (%)
same,AE: Dyspepsia,"Regimen 2A N = 7, All Grades",1 (14.3) n (%)
same,AE: Dyspnoea,"Regimen 2A N = 7, All Grades",0 n (%)
same,AE: Epistaxis,"Regimen 2A N = 7, All Grades",0 n (%)
same,AE: Fatigue,"Regimen 2A N = 7, All Grades",0 n (%)
same,AE: Febrile Neutropenia,"Regimen 2A N = 7, All Grades",2 (28.6) n (%)
same,AE: Gamma-Glutamyltransferase Increased,"Regimen 2A N = 7, All Grades",0 n (%)
same,AE: General Physical Health Deterioration,"Regimen 2A N = 7, All Grades",0 n (%)
same,AE: Gingival Bleeding,"Regimen 2A N = 7, All Grades",0 n (%)
same,AE: Graft Versus Host Disease,"Regimen 2A N = 7, All Grades",0 n (%)
same,AE: Haemoglobin Decreased,"Regimen 2A N = 7, All Grades",0 n (%)
same,AE: Headache,"Regimen 2A N = 7, All Grades",0 n (%)
same,AE: Hyperbilirubinaemia,"Regimen 2A N = 7, All Grades",1 (14.3) n (%)
same,AE: Hyperglycaemia,"Regimen 2A N = 7, All Grades",0 n (%)
same,AE: Hyperkalaemia,"Regimen 2A N = 7, All Grades",0 n (%)
same,AE: Hyperphosphataemia,"Regimen 2A N = 7, All Grades",0 n (%)
same,AE: Hyperuricaemia,"Regimen 2A N = 7, All Grades",1 (14.3) n (%)
same,AE: Hypoalbuminaemia,"Regimen 2A N = 7, All Grades",0 n (%)
same,AE: Hypocalcaemia,"Regimen 2A N = 7, All Grades",0 n (%)
same,AE: Hypokalaemia,"Regimen 2A N = 7, All Grades",0 n (%)
same,AE: Hypomagnesaemia,"Regimen 2A N = 7, All Grades",0 n (%)
same,AE: Hyponatraemia,"Regimen 2A N = 7, All Grades",0 n (%)
same,AE: Hypophosphataemia,"Regimen 2A N = 7, All Grades",0 n (%)
same,AE: Hypotension,"Regimen 2A N = 7, All Grades",0 n (%)
same,AE: Infection,"Regimen 2A N = 7, All Grades",0 n (%)
same,AE: Infective Glossitis,"Regimen 2A N = 7, All Grades",0 n (%)
same,AE: Iron Overload,"Regimen 2A N = 7, All Grades",0 n (%)
same,AE: Leukopenia,"Regimen 2A N = 7, All Grades",0 n (%)
same,AE: Lip Oedema,"Regimen 2A N = 7, All Grades",0 n (%)
same,AE: Lipase Increased,"Regimen 2A N = 7, All Grades",0 n (%)
same,AE: Macular Oedema,"Regimen 2A N = 7, All Grades",0 n (%)
same,AE: Malaise,"Regimen 2A N = 7, All Grades",1 (14.3) n (%)
same,AE: Mouth Haemorrhage,"Regimen 2A N = 7, All Grades",0 n (%)
same,AE: Nausea,"Regimen 2A N = 7, All Grades",3 (42.9) n (%)
same,AE: Neutropenia/Neutrophil Count Decreased,"Regimen 2A N = 7, All Grades",1 (14.3) n (%)
same,AE: Oedema,"Regimen 2A N = 7, All Grades",0 n (%)
same,AE: Oedema Peripheral,"Regimen 2A N = 7, All Grades",0 n (%)
same,AE: Oral Disorder,"Regimen 2A N = 7, All Grades",0 n (%)
same,AE: Pain In Extremity,"Regimen 2A N = 7, All Grades",0 n (%)
same,AE: Pancytopenia,"Regimen 2A N = 7, All Grades",0 n (%)
same,AE: Pneumonia,"Regimen 2A N = 7, All Grades",0 n (%)
same,AE: Pollakiuria,"Regimen 2A N = 7, All Grades",0 n (%)
same,AE: Pyrexia,"Regimen 2A N = 7, All Grades",1 (14.3) n (%)
same,AE: Rash,"Regimen 2A N = 7, All Grades",0 n (%)
same,AE: Rash Erythematous,"Regimen 2A N = 7, All Grades",0 n (%)
same,AE: Rash Papular,"Regimen 2A N = 7, All Grades",0 n (%)
same,AE: Rectal Haemorrhage,"Regimen 2A N = 7, All Grades",0 n (%)
same,AE: Renal Failure,"Regimen 2A N = 7, All Grades",0 n (%)
same,AE: Skin Exfoliation,"Regimen 2A N = 7, All Grades",0 n (%)
same,AE: Stomatitis,"Regimen 2A N = 7, All Grades",0 n (%)
same,AE: Subarachnoid Haemorrhage,"Regimen 2A N = 7, All Grades",0 n (%)
same,AE: Thrombocytopenia/Platelet Count Decreased,"Regimen 2A N = 7, All Grades",2 (28.6) n (%)
same,AE: Total,"Regimen 2A N = 7, All Grades",5 (71.4) n (%)
same,AE: Tumour Lysis Syndrome,"Regimen 2A N = 7, All Grades",1 (14.3) n (%)
same,AE: Vomiting,"Regimen 2A N = 7, All Grades",1 (14.3) n (%)
same,AE: Weight Decreased,"Regimen 2A N = 7, All Grades",0 n (%)
same,AE: White Blood Cell Count Decreased,"Regimen 2A N = 7, All Grades",1 (14.3) n (%)
same,AE: Abdominal Discomfort,"Regimen 2A N = 7, Grade 3/4",0 n (%)
same,AE: Abdominal Pain,"Regimen 2A N = 7, Grade 3/4",0 n (%)
same,AE: Abdominal Pain Upper,"Regimen 2A N = 7, Grade 3/4",0 n (%)
same,AE: Acute Kidney Injury,"Regimen 2A N = 7, Grade 3/4",0 n (%)
same,AE: Amylase Increased,"Regimen 2A N = 7, Grade 3/4",0 n (%)
same,AE: Anaemia,"Regimen 2A N = 7, Grade 3/4",2 (28.6) n (%)
same,AE: Arthralgia,"Regimen 2A N = 7, Grade 3/4",0 n (%)
same,AE: Asthenia,"Regimen 2A N = 7, Grade 3/4",0 n (%)
same,AE: Atrial Fibrillation,"Regimen 2A N = 7, Grade 3/4",0 n (%)
same,AE: Atypical Pneumonia,"Regimen 2A N = 7, Grade 3/4",0 n (%)
same,AE: Balanitis Candida,"Regimen 2A N = 7, Grade 3/4",0 n (%)
same,AE: Blood Alkaline Phosphatase Increased,"Regimen 2A N = 7, Grade 3/4",0 n (%)
same,AE: Blood Bilirubin Increased,"Regimen 2A N = 7, Grade 3/4",0 n (%)
same,AE: Blood Creatinine Increased,"Regimen 2A N = 7, Grade 3/4",0 n (%)
same,AE: Blood Phosphorus Increased,"Regimen 2A N = 7, Grade 3/4",0 n (%)
same,AE: Blood Uric Acid Increased,"Regimen 2A N = 7, Grade 3/4",0 n (%)
same,AE: Bone Marrow Failure,"Regimen 2A N = 7, Grade 3/4",1 (14.3) n (%)
same,AE: C-Reactive Protein Increased,"Regimen 2A N = 7, Grade 3/4",1 (14.3) n (%)
same,AE: Cardiac Failure,"Regimen 2A N = 7, Grade 3/4",0 n (%)
same,AE: Cellulitis,"Regimen 2A N = 7, Grade 3/4",0 n (%)
same,AE: Chronic Graft Versus Host Disease,"Regimen 2A N = 7, Grade 3/4",0 n (%)
same,AE: Conjunctival Haemorrhage,"Regimen 2A N = 7, Grade 3/4",0 n (%)
same,AE: Cough,"Regimen 2A N = 7, Grade 3/4",0 n (%)
same,AE: Cystitis Viral,"Regimen 2A N = 7, Grade 3/4",0 n (%)
same,AE: Cytomegalovirus Infection,"Regimen 2A N = 7, Grade 3/4",0 n (%)
same,AE: Decreased Appetite,"Regimen 2A N = 7, Grade 3/4",0 n (%)
same,AE: Diarrhoea,"Regimen 2A N = 7, Grade 3/4",0 n (%)
same,AE: Dyspepsia,"Regimen 2A N = 7, Grade 3/4",0 n (%)
same,AE: Dyspnoea,"Regimen 2A N = 7, Grade 3/4",0 n (%)
same,AE: Epistaxis,"Regimen 2A N = 7, Grade 3/4",0 n (%)
same,AE: Fatigue,"Regimen 2A N = 7, Grade 3/4",0 n (%)
same,AE: Febrile Neutropenia,"Regimen 2A N = 7, Grade 3/4",2 (28.6) n (%)
same,AE: Gamma-Glutamyltransferase Increased,"Regimen 2A N = 7, Grade 3/4",0 n (%)
same,AE: General Physical Health Deterioration,"Regimen 2A N = 7, Grade 3/4",0 n (%)
same,AE: Gingival Bleeding,"Regimen 2A N = 7, Grade 3/4",0 n (%)
same,AE: Graft Versus Host Disease,"Regimen 2A N = 7, Grade 3/4",0 n (%)

# Source: patent US10966978B2, “Dose and regimen for HDM2-p53 interaction inhibitors” (Novartis AG, priority 2016, dated 2021)
